Laboratory results reported in patent US8658797B2, “Asymmetric ureas and medical uses thereof” (Helsinn Healthcare SA, priority 2011, dated 2014).

How the values were obtained:
GHSR-1a [1] = target: T1, GHSR-1a (Homo sapiens, UniProt Q92847); assay: Calcium FLIPR assay, GHSR-1a antagonism (reduction of ghrelin response); assay type: cell-based; settings: HEK293/GHSR1a cell line; ghrelin 10 nM; read-out: IC50 FLIPR antagonist Activity
T1 construct: expressed in transfected cells; host or cells: HEK293
Procedure: (§1) The intracellular calcium assay was carried out in a 384-well format FLIPR™ (Molecular Device) HEK293/GHSR1a cell line. Cells were seeded 24 hr prior to the experiments at an optimal density per well. Preincubation with selected calcium dye lasted for 30-60 min at room temperature or 37° C. Test compounds, dissolved in DMSO, were added at the appropriate time and incubated for 15 min followed by the addition of ghrelin with FlexStation or FLIPR. Relative fluorescence was monitored by the FLIPR™ Molecular Device. EC50 and IC50 values were estimated from dose-response data using GraphPad Prism software. To check for GHSR-1a agonism the compound was added at t=20 sec. and the calcium response was followed for 2 minutes. To check for GHSR-1a antagonism the compound and Ghrelin (10 nM) were added to the cells at t=20 sec. and the calcium response was measured for 2 minutes. The potency of the antagonist was calculated by its ability to reduce the ghrelin response. Dose-response curves were made for relevant antagonists.

Male C57BL/6J mice = assay: Evaluation of GHSR1a antagonists on food intake test in mouse; assay type: in vivo; settings: for Mouse Food Intake effect: NSE: not significant effect
Procedure: Male C57BL/6J mice, 18-22 g body weight, were fasted overnight (16 h before compound administration) and placed in a regular light dark cycle (6:00-18:00 light/18:00-6:00 dark). After 1 wk acclimation, animals were sorted into two groups (n=6 each, 2 per cage) based on body weight. Animals in group one were be treated with vehicle and animals in group 2 were treated with the test agent (n=6 for each group). The cumulative food intake was evaluated at 1, 2, 4, 8 and 24 hrs after drug or vehicle treatment. Food intake was measured by subtracting uneaten food from the initial premeasured food.

GHSR-1a [2] = target: T1, GHSR-1a; assay: Calcium FLIPR assay, GHSR-1a agonism; assay type: cell-based; settings: HEK293/GHSR1a cell line; read-out: EC50 FLIPR against Activity (EC50 part of μM/Emax)
Procedure: as §1

[3] = Mus musculus, ip, 10 mg/kg i.p., at 1 hr
[4] = Mus musculus, ip, 30 mg/kg i.p., at 1 hr

T1 sequence (Q92847 whole entry): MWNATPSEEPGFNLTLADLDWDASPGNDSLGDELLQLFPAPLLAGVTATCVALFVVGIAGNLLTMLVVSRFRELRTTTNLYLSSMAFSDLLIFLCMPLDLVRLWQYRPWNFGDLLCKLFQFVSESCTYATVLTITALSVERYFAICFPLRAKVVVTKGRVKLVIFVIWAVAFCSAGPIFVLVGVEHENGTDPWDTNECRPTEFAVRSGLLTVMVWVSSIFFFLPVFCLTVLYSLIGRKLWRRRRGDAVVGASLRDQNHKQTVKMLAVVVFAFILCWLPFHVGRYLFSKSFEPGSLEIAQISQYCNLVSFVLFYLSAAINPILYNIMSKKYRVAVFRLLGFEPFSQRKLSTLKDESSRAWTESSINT

| SMILES | IC50 (GHSR-1a [1]) [nM] | Mouse Food Intake effect (Male C57BL/6J mice; 10 mg/kg i.p.) | inhibition in vivo at 10 mg/kg (Male C57BL/6J mice; [3]) [%] | EC50 (GHSR-1a [2]) [µM] | further results |
| --- | --- | --- | --- | --- | --- |
| CC(NC(=O)N(Cc1ccccc1F)C1CCN(C)CC1(C)C)c1cccc(Cl)c1Cl (stereo not drawn) | 7 | NSE (10 mg/kg) |  |  |  |
| CC(NC(=O)N(Cc1ccccc1Cl)C1CCN(C)CC1)c1cccc(Cl)c1Cl (stereo not drawn) | 38 |  | 95 |  | Mouse Food Intake, duration of activity (Male C57BL/6J mice; 3 mg/kg i.p., after 1 hr): no activity up to follow hrs; Mouse Food Intake, activity up to (Male C57BL/6J mice; 10 mg/kg i.p.): ≤ 24 h; Mouse Food Intake, activity up to (Male C57BL/6J mice; 30 mg/kg i.p.): ≤ 24 h; inhibition in vivo at 3 mg/kg (Male C57BL/6J mice; Mus musculus, ip, 3 mg/kg i.p., at 1 hr): 39%; inhibition in vivo at 30 mg/kg (Male C57BL/6J mice; Mus musculus, ip, 30 mg/kg i.p., at 2 hr): 70% |
| CC(NC(=O)N(C)C1CCN(C)CC1(C)C)c1cccc(Cl)c1Cl (stereo not drawn) | 12 |  | 26 |  |  |
| COc1cccc(CN(C(=O)N[C@H](C)c2cccc(Cl)c2Cl)C2CCN(C)CC2C)c1 (stereo partly drawn) | 5 | NSE (10 mpk) |  |  |  |
| COc1ccc(C(C)NC(=O)N(C)C2CCN(C)CC2(C)C)c2ccccc12 (stereo not drawn) | 12 | NSE (10 mg/kg) |  | 0.01 |  |
| CC(NC(=O)N(Cc1ccccc1)C1CCN(C)CC1)c1cccc(Cl)c1Cl (stereo not drawn) | 22 |  | 47 | 16.8 |  |
| COc1ccc(C(C)NC(=O)N(C)C2CCN(C)CC2(C)C)c(Cl)c1Cl (stereo not drawn) | 3 | NSE (10 mg/kg) |  | 0.01 |  |
| COc1ccc(C(C)NC(=O)N(OC)C2CCN(C)CC2)c(Cl)c1Cl (stereo not drawn) | 4 |  |  | 0.0082 |  |
| COc1ccc(C(C)NC(=O)N(O)C2CCN(C)CC2)c2ccccc12 (stereo not drawn) |  |  |  | 0.0021 |  |
| COc1ccc(C(C)NC(=O)N(C)C2CCN(C)CC2)c2ccccc12 (stereo not drawn) | 40 | NSE |  | 0.03 | Mouse Food Intake, activity up to (Male C57BL/6J mice; 30 mg/kg i.p.): ≤ 24 h; Mouse Food Intake % increase food intake (Male C57BL/6J mice; 30 mg/kg i.p., at 1 hr): 70% |
| CN1CCC(N(C)C(=O)NC(CO)c2cccc3ccccc23)CC1 (stereo not drawn) | 910 |  |  | 0.49 | inhibition in vivo at 10 mg/kg (Male C57BL/6J mice; Mus musculus, ip, 10 mg/kg i.p., 'at to 24 hrs'): 27% |
| C[C@@H](NC(=O)N(Cc1ccccc1)C1CCN(C)CC1(C)C)c1cccc2ccccc12 (stereo partly drawn) | 5 |  |  | 0.006 | Mouse Food Intake effect (Male C57BL/6J mice; 30 mg/kg i.p.): NSE (30 mg/kg) |
| CC(NC(=O)N(C)C1CCN(C)CC1)c1cccc(Cl)c1Cl (stereo not drawn) | 120 | NSE (10 mg/kg) |  | 0.009 |  |
| COc1ccc(C(CO)NC(=O)N(C)C2CCN(C)CC2)c2ccccc12 (stereo not drawn) | 66 |  | 47 | 0.02 |  |
| CCN(C(=O)NC(C)c1cccc2ccccc12)C1CCN(C)CC1 (stereo not drawn) | 320 |  |  |  | Mouse Food Intake, activity up to (Male C57BL/6J mice; 30 mg/kg i.p.): ≤ 24 h; inhibition in vivo at 30 mg/kg (Male C57BL/6J mice; [4]): 28% |
| C[C@@H](NC(=O)N(C)C1CCN(C)CC1(C)C)c1cccc2ccccc12 (stereo partly drawn) | 21 |  |  | 0.009 | Mouse Food Intake, activity up to (Male C57BL/6J mice; 30 mg/kg i.p.): ≤ 8 h; inhibition in vivo at 30 mg/kg (Male C57BL/6J mice; Mus musculus, ip, 30 mg/kg i.p., at 4 h): 47% |
| CN1CCC(N(C)C(=O)NC(COCc2ccccc2)c2cccc(Cl)c2Cl)CC1 (stereo not drawn) | 70 |  | 40 |  | Mouse Food Intake effect (Male C57BL/6J mice; 3 mg/kg i.p.): NSE; Mouse Food Intake, activity up to (Male C57BL/6J mice; 10 mg/kg i.p.): ≤ 4 h; Mouse Food Intake, activity up to (Male C57BL/6J mice; 30 mg/kg i.p.): ≤ 2 h; inhibition in vivo at 30 mg/kg (Male C57BL/6J mice; [4]): 50% |
| CC(NC(=O)N(Cc1cccc(F)c1)C1CCN(C)CC1)c1cccc(Cl)c1Cl (stereo not drawn) | 65 |  | 44 |  |  |
| COc1cccc(CN(C(=O)NC(C)c2cccc(Cl)c2Cl)C2CCN(C)CC2(C)C)c1 (stereo not drawn) | 5 | NSE (10 mg/kg) |  |  |  |
| CCN(C(=O)NC(CCc1cccc(OCc2cccnc2)c1)c1cccc2ccccc12)C1CCN(C)CC1 (stereo not drawn) | 75 |  | 74 | 18.7 | Mouse Food Intake, activity up to (Male C57BL/6J mice; 10 mg/kg i.p.): ≤ 24 h |
